Assay results published in patent publication US8329717B2, “Pyrimidine derivatives and their use for controlling undesired plant growth” (Bayer Cropscience AG, priority 2008, dated 2012).

Tests used:
Polygonum convolvulus = experiment: Pre-emergence herbicidal effect; format: in vivo; conditions: Dosage 320 g/ha, visual scoring after 3 weeks vs untreated controls, 100% = plants have died
Description: (§1) 1. Pre-Emergence Herbicidal Effect and Crop Plant Compatibility Seeds of monocotyledonous or dicotyledonous weed plants or crop plants are planted in wood-fiber pots in sandy loam and covered with earth. The compounds according to the invention, formulated in the form of wettable powders (WP) or as emulsion concentrates (EC), are then applied as aqueous suspension or emulsion at a water application rate of 600 to 800 l/ha (converted) with the addition of 0.2% of wetting agent to the surface of the covering earth. The dosage of the compounds according to the invention is given in grams per hectare. Following the treatment, the pots are placed in a greenhouse and kept under good growth conditions for the test plants. The visual scoring of the damage on the test plants is carried out after an experiment time of 3 weeks in comparison with untreated controls (herbicidal effect in percent (%): 100% effect=plants have died, 0% effect=as control plants). The following abbreviations are used in the tables below: [table]

Alopecurus myosuroides = experiment: Pre-emergence herbicidal effect; format: in vivo; conditions: Dosage 320 g/ha, visual scoring after 3 weeks vs untreated controls, 100% = plants have died
Description: as §1

Stellaria media [1] = experiment: Pre-emergence herbicidal effect; format: in vivo; conditions: Dosage 320 g/ha, visual scoring after 3 weeks vs untreated controls, 100% = plants have died
Description: as §1

Viola tricolor [2] = experiment: Pre-emergence herbicidal effect; format: in vivo; conditions: Dosage 320 g/ha, visual scoring after 3 weeks vs untreated controls, 100% = plants have died
Description: as §1

Amaranthus retroflexus [3] = experiment: Pre-emergence herbicidal effect; format: in vivo; conditions: Dosage 320 g/ha, visual scoring after 3 weeks vs untreated controls, 100% = plants have died
Description: as §1

Veronica persica [4] = experiment: Pre-emergence herbicidal effect; format: in vivo; conditions: Dosage 320 g/ha, visual scoring after 3 weeks vs untreated controls, 100% = plants have died
Description: as §1

Lolium multiflorum [5] = experiment: Pre-emergence herbicidal effect; format: in vivo; conditions: Dosage 320 g/ha, visual scoring after 3 weeks vs untreated controls, 100% = plants have died
Description: as §1

Matricaria inodora = experiment: Pre-emergence herbicidal effect; format: in vivo; conditions: Dosage 320 g/ha, visual scoring after 3 weeks vs untreated controls, 100% = plants have died
Description: as §1

Echinochloa crus-galli [6] = experiment: Pre-emergence herbicidal effect; format: in vivo; conditions: Dosage 320 g/ha, visual scoring after 3 weeks vs untreated controls, 100% = plants have died
Description: as §1

Setaria viridis [7] = experiment: Pre-emergence herbicidal effect; format: in vivo; conditions: Dosage 320 g/ha, visual scoring after 3 weeks vs untreated controls, 100% = plants have died
Description: as §1

Avena fatua = experiment: Pre-emergence herbicidal effect; format: in vivo; conditions: Dosage 320 g/ha, visual scoring after 3 weeks vs untreated controls, 100% = plants have died
Description: as §1

Stellaria media [8] = experiment: Post-emergence herbicidal effect; format: in vivo; conditions: Dosage 320 g/ha, one-leaf stage, visual scoring after ca. 3 weeks vs untreated controls, 100% = plants have died
Protocol: (§2) The following abbreviations are used in the tables below: [table] 2. Post-Emergence Herbicidal Effect and Crop Plant Compatibility Seeds of monocotyledonous or dicotyledonous weed plants or crop plants are planted in wood-fiber pots in sandy loam, covered with earth and grown in a greenhouse under good growth conditions. 2 to 3 weeks after sowing, the test plants are treated in the one-leaf stage. The compounds according to the invention, formulated in the form of wettable powders (WP) or as emulsion concentrates (EC), are then sprayed onto the green plant parts as aqueous suspension or emulsion at a water application rate of 600 to 800 l/ha (converted) with the addition of 0.2% of wetting agent. The dosage of the compounds according to the invention is given in grams per hectare. After ca. 3 weeks' standing time of the test plants in the greenhouse under optimum growth conditions, the effect of the preparations is scored visually in comparison with untreated controls (herbicidal effect in percent (%): 100% effect=plants have died, 0% effect=as control plants).

Abutilon theophrasti = experiment: Post-emergence herbicidal effect; format: in vivo; conditions: Dosage 320 g/ha, one-leaf stage, visual scoring after ca. 3 weeks vs untreated controls, 100% = plants have died
Protocol: as §2

Viola tricolor [9] = experiment: Post-emergence herbicidal effect; format: in vivo; conditions: Dosage 320 g/ha, one-leaf stage, visual scoring after ca. 3 weeks vs untreated controls, 100% = plants have died
Protocol: as §2

Veronica persica [10] = experiment: Post-emergence herbicidal effect; format: in vivo; conditions: Dosage 320 g/ha, one-leaf stage, visual scoring after ca. 3 weeks vs untreated controls, 100% = plants have died
Protocol: as §2

Echinochloa crus-galli [11] = experiment: Post-emergence herbicidal effect; format: in vivo; conditions: Dosage 320 g/ha, one-leaf stage, visual scoring after ca. 3 weeks vs untreated controls, 100% = plants have died
Protocol: as §2

[12] = logp (HCOOH), chemicophysical data; conditions: HCOOH
Setaria viridis [13] = experiment: Post-emergence herbicidal effect; format: in vivo; conditions: Dosage 320 g/ha, one-leaf stage, visual scoring after ca. 3 weeks vs untreated controls, 100% = plants have died
Protocol: as §2

Amaranthus retroflexus [14] = experiment: Post-emergence herbicidal effect; format: in vivo; conditions: Dosage 320 g/ha, one-leaf stage, visual scoring after ca. 3 weeks vs untreated controls, 100% = plants have died
Protocol: as §2

Lolium multiflorum [15] = experiment: Post-emergence herbicidal effect; format: in vivo; conditions: Dosage 320 g/ha, one-leaf stage, visual scoring after ca. 3 weeks vs untreated controls, 100% = plants have died
Protocol: as §2

SMILES	Pre-emergence herbicidal effect POLCO (Polygonum convolvulus) [%]	Pre-emergence herbicidal effect ALOMY (Alopecurus myosuroides) [%]	Pre-emergence herbicidal effect STEME (Stellaria media [1]) [%]	Pre-emergence herbicidal effect VIOTR (Viola tricolor [2]) [%]	Pre-emergence herbicidal effect AMARE (Amaranthus retroflexus [3]) [%]	Pre-emergence herbicidal effect VERPE (Veronica persica [4]) [%]	Pre-emergence herbicidal effect LOLMU (Lolium multiflorum [5]) [%]	Pre-emergence herbicidal effect MATIN (Matricaria inodora) [%]	Pre-emergence herbicidal effect ECHCG (Echinochloa crus-galli [6]) [%]	Pre-emergence herbicidal effect SETVI (Setaria viridis [7]) [%]	Pre-emergence herbicidal effect AVEFA (Avena fatua) [%]	Post-emergence herbicidal effect STEME (Stellaria media [8]) [%]	Post-emergence herbicidal effect ABUTH (Abutilon theophrasti) [%]	Post-emergence herbicidal effect VIOTR (Viola tricolor [9]) [%]	Post-emergence herbicidal effect VERPE (Veronica persica [10]) [%]	Post-emergence herbicidal effect ECHCG (Echinochloa crus-galli [11]) [%]	logp (HCOOH) [12]	Post-emergence herbicidal effect SETVI (Setaria viridis [13]) [%]	Post-emergence herbicidal effect AMARE (Amaranthus retroflexus [14]) [%]	Post-emergence herbicidal effect LOLMU (Lolium multiflorum [15]) [%]
Cc1nc(NC2CCOc3ccccc32)nc(N)c1[N+](=O)[O-] (racemic) [Example 1.121]	100	80	100	100	100	100	90	100	100	100	–	–	–	–	–	–	–	–	–	–
Cc1nc(NC2c3ccccc3CC2C)nc(N)c1[N+](=O)[O-] (racemic) [Example 1.125]	90	80	100	100	90	100	–	95	90	90	–	–	–	–	–	–	–	–	–	–
CCc1nc(N[C@H]2c3cc(C)ccc3C[C@@H]2C)nc(N)c1C#N [Example 1.61]	100	100	100	100	100	100	–	90	100	90	90	90	80	80	90	90	solid, m.p.: 126.9° C.; logp (HCOOH): 3.07; 1H-NMR (CDCl3, 400 MHZ, δ in ppm): 1.25	–	–	–
CCc1nc(N[C@@H]2CCCc3ccccc32)nc(N)c1C#N [Example 1.63]	100	100	100	100	90	100	–	100	100	100	80	80	–	–	80	80	wax-like; logp (HCOOH): 2.49; 1H-NMR (CDCl3, 400 MHZ, δ in ppm): 1.25 (t, 3H, CH3);	80	–	–
Cc1ccc2c(c1)[C@H](Nc1nc(N)c(C#N)c(C3(c4ccc(Cl)cc4Cl)CC3)n1)[C@@H](C)C2 [Example 1.94]	80	80	100	100	90	100	80	85	90	90	80	–	–	–	–	–	wax-like; logp (HCOOH): 5.55; 1H-NMR (CDCl3, 400 MHZ, δ in ppm): 1.25 (d, 3H, CH3);	–	–	–
Nc1nc(N[C@@H]2CCCc3ccccc32)ncc1Br [Example 1.97]	–	80	100	100	100	100	100	100	100	100	–	80	–	–	80	80	–	80	80	80
